# Assay: Inhibition of Glycogen synthase kinase-3beta (GSK3-beta)
row,IC50 [µM],SMILES
1,0.048,"O=C1NC(=O)C2=C1c1cn(c3ncccc13)CCOCCOCCOCCOCCn1cc2c2cccnc21 [17,20,23,26-tetraoxa-4,12,14,29,31-pentaazahexacyclo[27.6.1.17,14.02,6.08,13.030,35]heptatriaconta-1(36),2(6),7(37),8,10,12,30,32,34-nonaene-3,5-dione]"
2,0.026,"O=C1NC(=O)C2=C1c1cn(c3ccccc13)CCOCCOCCOCCOCCn1cc2c2ccccc21 [17,20,23,26-tetraoxa-4,14,29-triazahexacyclo[27.6.1.17,14.02,6.08,13.030,35]heptatriaconta-1(36),2(6),7(37),8,10,12,30,32,34-nonaene-3,5-dione]"
3,0.62,"O=C1NC(=O)C2=C1c1cn(c3ncccc13)CCOCCOCCn1cc2c2cccnc21 [17,20-dioxa-4,12,14,23,25-pentaazahexacyclo[21.6.1.17,14.02,6.08,13.024,29]hentriaconta-1(30),2(6),7(31),8,10,12,24,26,28-nonaene-3,5-dione]"
4,0.138,"O=C1NC(=O)C2=C1c1cn(c3ccccc13)CCOCCOCCn1cc2c2cccnc21 [17,20-dioxa-4,12,14,23-tetraazahexacyclo[21.6.1.17,14.02,6.08,13.024,29]hentriaconta-1(30),2(6),7(31),8,10,12,24,26,28-nonaene-3,5-dione]"
5,0.051,"O=C1NC(=O)C2=C1c1cn(c3ccccc13)CCOCCOCCOCCOCCOCCn1cc2c2ccccc21 [17,20,23,26,29-pentaoxa-4,14,32-triazahexacyclo[30.6.1.17,14.02,6.08,13.033,38]tetraconta-1(39),2(6),7(40),8,10,12,33,35,37-nonaene-3,5-dione]"
6,0.034,"O=C1NC(=O)C2=C1c1cn(c3ncccc13)CCOCCOCCOCCn1cc2c2cccnc21 [17,20,23-trioxa-4,12,14,26,28-pentaazahexacyclo[24.6.1.17,14.02,6.08,13.027,32]tetratriaconta-1(33),2(6),7(34),8,10,12,27,29,31-nonaene-3,5-dione]"
7,0.136,"O=C1NC(=O)C2=C1c1cn(c3ccccc13)CCOCCOCCn1cc2c2ccccc21 [17,20-dioxa-4,14,23-triazahexacyclo[21.6.1.17,14.02,6.08,13.024,29]hentriaconta-1(30),2(6),7(31),8,10,12,24,26,28-nonaene-3,5-dione]"
8,0.403,"O=C1NC(=O)C2=C1c1cn(c3ncccc13)CCOCCOCCOCCOCCOCCn1cc2c2cccnc21 [17,20,23,26,29-pentaoxa-4,12,14,32,34-pentaazahexacyclo[30.6.1.17,14.02,6.08,13.033,38]tetraconta-1(39),2(6),7(40),8,10,12,33,35,37-nonaene-3,5-dione]"

# Reference: BindingDB's records for doi:10.1021/jm030115o (Johnson and Johnson Pharmaceutical Research and Development, 2003)
